Results as given in PubChem BioAssay (NCI).
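Cultured in 96-well plates, cells were exposed to test compound for 48 hours across five concentrations. TGI: total growth inhibition.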

Columns and labels:
Experiment in all cases: inhibition of tumour cell growth, NCI panel, 48 h
OVCAR-3 ovarian = tested on: OVCAR-3 ovarian
PC-3 prostate = tested on: PC-3 prostate
M14 melanoma = tested on: M14 melanoma
NCI-H522 lung = tested on: NCI-H522 lung
TK-10 renal = tested on: TK-10 renal
T-47D breast = tested on: T-47D breast
HOP-62 NSCLC = tested on: HOP-62 NSCLC
HL-60(TB) leukemia = tested on: HL-60(TB) leukemia
NCI-H460 lung = tested on: NCI-H460 lung
CCRF-CEM leukemia = tested on: CCRF-CEM leukemia
SK-OV-3 ovarian = tested on: SK-OV-3 ovarian
UACC-257 melanoma = tested on: UACC-257 melanoma
OVCAR-5 ovarian = tested on: OVCAR-5 ovarian
MDA-MB-231 breast = tested on: MDA-MB-231 breast
NCI-H23 lung = tested on: NCI-H23 lung
CAKI-1 renal = tested on: CAKI-1 renal
MCF7 breast = tested on: MCF7 breast
SF-539 CNS = tested on: SF-539 CNS
RXF 393 renal = tested on: RXF 393 renal

| SMILES | TGI (OVCAR-3 ovarian) [µM] | TGI (PC-3 prostate) [µM] | TGI (M14 melanoma) [µM] | TGI (NCI-H522 lung) [µM] | TGI (TK-10 renal) [µM] | TGI (T-47D breast) [µM] | TGI (HOP-62 NSCLC) [µM] | TGI (HL-60(TB) leukemia) [µM] | TGI (NCI-H460 lung) [µM] | TGI (CCRF-CEM leukemia) [µM] | TGI (SK-OV-3 ovarian) [µM] | TGI (UACC-257 melanoma) [µM] | TGI (OVCAR-5 ovarian) [µM] | TGI (MDA-MB-231 breast) [µM] | TGI (NCI-H23 lung) [µM] | TGI (CAKI-1 renal) [µM] | TGI (MCF7 breast) [µM] | TGI (SF-539 CNS) [µM] | TGI (RXF 393 renal) [µM] |
| --- | --- | --- | --- | --- | --- | --- | --- | --- | --- | --- | --- | --- | --- | --- | --- | --- | --- | --- | --- |
| CN1C(=O)c2ccccc2OC12C=Cc1ccc(O)cc1O2 (stereo not given) | 63.6 | 59.2 | 45.3 | > 100 | > 100 | 52.6 | 73.7 | 58.5 | 61.8 | 72.8 | 53.5 | 43.6 | > 100 | 82.1 | > 100 | 58 | > 100 |  |  |
| Cc1cc(C)c2c(c1)C/C(=C\c1ccccc1C(=O)O)C2=O | > 100 | > 100 | > 100 | > 100 | > 100 | > 100 | > 100 | > 100 | 26.4 | > 100 |  | > 100 | > 100 | > 100 | > 100 | > 100 | > 100 | > 100 | > 100 |
| CC1C[C@]2(C)C(=NCCN)Nc3ccccc3[C@@H]2N(C)c2ccccc21 (stereo not given in full) | 23.7 | 26.6 | 3.56 |  | 21.5 | 39.2 | 30.6 | 36 | 24 | 35 |  | 14.8 | 27.4 | 21.1 | 31.4 | 31.3 | 21.3 | 25.9 | 22.1 |
| Nc1nc(NCC2(CO)CC2)cc(=O)[nH]1 | > 100 | > 100 | > 100 | > 100 |  | > 100 | > 100 | > 100 | > 100 | > 100 | > 100 | > 100 | > 100 | > 100 | > 100 | > 100 | > 100 |  | > 100 |
| O=S1(=O)Cc2ccc3c4c2-c2c(ccc5ccc(c-4c25)CS(=O)(=O)C3)C1 | > 100 | > 100 | > 100 | > 100 | > 100 | > 100 | > 100 | > 100 | > 100 |  | > 100 | > 100 | > 100 | > 100 |  |  | > 100 | > 100 |  |
| CCOC(=O)c1nc2ccc(C(F)(F)F)cc2[nH]c1=O | > 100 | > 100 | > 100 |  | > 100 | > 100 | > 100 | > 100 | > 100 | > 100 | > 100 | > 100 | > 100 | > 100 | > 100 | > 100 | > 100 | > 100 | > 100 |
| COC(=O)[C@H](Cc1c[nH]c2ccccc12)NC(=O)c1ccc(CNC(=O)/C(C)=C/c2ccccc2)cc1 | > 100 | > 100 | 30.1 | 62.8 | > 100 | 27.7 | > 100 |  | > 100 | > 100 | > 100 | 33.5 | > 100 | 60.6 | > 100 | > 100 | > 100 | > 100 | 7.78 |
